From patent EP0945138A1, “Transfection particles” (Université Louis Pasteur de Strasbourg, priority 1997, dated 1999) come the findings set out here.

Common to all, as to assay type: physicochemical
The nature of series [1]: Determination of the critical micelle concentration (c.m.c.) with a Langmuir balance, without DNA. The following applies: for CMC / CMC without DNA: MES buffer 20 mM pH 6 containing 10 mM DTT; for c.m.c.: n-alkyl esters of cysteine by chain length, Langmuir balance, 20 mM MES buffer, pH 6. As for the experimental part: Clean monomolecular DNA collapse is generally expected only for detergent concentrations below the critical micelle concentration (c.m.c.). Several n-alkyl esters of cysteine were synthesized by DMAP-catalyzed dicyclohexylcarbodiimide (DCC) dehydration and their c.m.c.'s were determined with a Langmuir balance (20 mM MES buffer, pH 6), providing the following results (n-alkyl chain length / c.m.c.): dodecane / 15 µM; undecane / 80 µM; decane / 320 µM; octane /> 2000 µM. Typical working plasmid concentrations for gene delivery experiments being in the 50 µM range, the decane chain is a safe choice. The weakly basic nature of the cysteine ester primary amine function (pKa= 6.8) is insufficient for simultaneous DNA binding (which requires a protonated detergent) and reasonable thiol oxidation rates in slightly basic medium. The amine function was therefore converted into a highly basic guanidine which is known to interact strongly with DNA (C10 -CG+, Fig. 2).
(§1) i) c.m.c. of a detergent with C8, C10, C11 and C12 cysteine Measurement of the c.m.c. was acomplished with a Langmuir balance in a MES buffer (20 mM pH 6) containing 10 mM DTT. When representing the surface tension as a logarithmic function of the detergent concentration a break at the c.m.c. was observed (Fig. 10). Applying this method c.m.c.'s of the compounds having different chain length (C8, C10, C11, C12) were determined.

Series [2] deals with pCMV-luc plasmid DNA. The series can be described thus: Agarose gel electrophoresis: physical and chemical stability of the complexes. The following applies: 1% agarose gel, 40 mM Tris-acetate buffer pH 8. As for the experimental part:
In a series of experiments, the reversibility of complex formation as well as the stability of complexed DNA towards degradation were assessed by electrophoresis (Fig. 5). […] Yet the cationic lipid/DNA particles could be destroyed either with excess sodium dodecyl sulfate detergent (SDS, lane 3) or by converting the lipid back to the original C10 -CG+ detergent with excess reducing dithiothreitol (DTT, lane 4). Serum nucleases present in cell culture medium rapidly degrade supercoiled plasmid DNA (lanes 1 and 8) into a smear of fragments with many nicks (lane 5).
1% agarose gel electrophoresis (90 min at 8 V/cm in 40 mM Tris-acetate buffer pH 8) of 20 µl samples containing 0.4 µg (lanes 1-4) or 0.2 µg (lanes 5-8) pCMV-luc plasmid DNA. Complexes were made by addition of a 100-fold concentrated C10 -C^G+ detergent solution (90 µM final concentration) to a solution of plasmid (60 µM) in HEPES buffer (15 mM, pH 7.4). The solution was gently mixed once and left to oxydize for 24 h. Lane 1: 60 µM plasmid DNA. Lane 2: 60 µM oxydized (C10 -C^G+)2/DNA complexes. Lane 3: as lane 2 in 3 mM final sodium dodecylsulfate before loading. Lane 4: as lane 2 in 6 mM dithiothreitol before loading. Lane 5: 60 µM plasmid incubated for 1 h at 37 °C with an equivalent volume of DMEM cell culture medium containing 10% serum. Lane 6: 60p µ M oxydized (C10 -C^G+)2/DNA complexes incubated as lane 5. […]

Series [3] concerns pCMVluc plasmid DNA. The series can be described thus: Oxidation rate of cysteine detergent into cystine lipid (free thiol, Ellman's reagent) with and without template DNA. The following applies: 90 µM detergent, TrisHCl 15 mM pH 8.4 saturated with oxygen, with 60 µM plasmid DNA versus without. As for the experimental part:
Oxidative detergent dimerization was expected to be prone to a template effect of DNA (Fig. 1). Fast intra-complex reaction is a key aspect to formation of small and stable particles since extensive detergent dimerization into lipid prior to DNA binding would bring the system back to a classical cationic lipid/DNA complex formation/aggregation process. Enhanced air oxidation rate was indeed observed in the presence of DNA (Fig. 3).
The stock buffer solution (TrisHCl 15 mM pH 8.4) was saturated with oxygen by three vacuum/oxygen atmosphere cycles. C10 -C^G+ was injected from a concentrated stock solution to a final concentration of 90 µM. For each time point, a 0.5 ml aliquot was removed and mixed with 0.5 ml 2XEllman's reagent. The remaining free thiol was quantitated spectrophotometrically according to Riddles et al. (1979 ). For the template experiment, pCMVluc plasmid DNA was added to a final concentration of 60 µM before addition of the detergent.

Series [4] concerns calf thymus DNA. The series can be described thus: Determination of the c.m.c. with a Langmuir balance, buffer containing DNA. The following applies: buffer containing calf thymus DNA at 30 µM bp. As for the experimental part:
as §1
ii) c.m.c. of C10 and C11 cysteine with and without DNA. In an analogous manner as above the c.m.c. value of C10 cysteine and C11 cysteine was determined, the buffer containing calf thymus DNA at a concentration of 30 µM bp (Fig. 11A, B).

The test system of series [5] is calf thymus DNA. The series can be described thus: Determination of thiol functions of SC2 with Ellman's reagent during DNA complexation. The following applies: after 10 min, no oxygen except that in the water. (DTNB colorimetry detects thiols as they appear.)
For series [6], the system named is calf thymus DNA. The series can be described thus: UV spectroscopy of spermine or SC2 particles at raised NaCl concentration. The following applies: 76 µM DNA bases; for absorption at 330 nm as compared to the maximum optical density at 25 mM NaCl: 65 mM SC2. As for the experimental part: The characterisation of the formed particles by UV spectroscopy was performed for different reasons. DNA in solution has a characteristic absorption spectrum between 240 and 310 nm. The absorption (optical density) has a maximum at 260 nm and 0 towards 310 nm. A change in DNA conformation should change the profile of the absorption spectrum. Moreover, the formation of particles results in an enhancement of the diffusion which can be perceived in UV by an enhancement of optical density.
Calf thymus DNA was complexed with spermine under conditions optimal for obtaining toroid structures as described by Naroditsky et al. (76 µM DNA bases, 65 mM spermine, 25 mM NaCl).

In series [1], `CCCCCCCCOC(=O)[C@@H](N)CS` [C8] displayed a CMC of over 2000 µM and a c.m.c. of over 2000 µM.
As for `CCCCCCCCCCNC(=O)C(CS)NC(=N)N` (stereo not drawn) [C10 -CG+, Guanidyl-cysteine-decylamide], the “DNA migration / stability during electrophoresis” value in series [2] is “unable to retard DNA migration”. In addition, in series [3], the “oxydation rate into cystine lipid” value is “faster in the presence of template DNA”.
Consider `CCCCCCCCCCOC(=O)[C@@H](N)CS` [C10], for which, in series [1], the CMC was found to be 320 µM, the “CMC without DNA” value was 320 µM and the c.m.c. came to 320 µM. For the same compound, the “CMC with DNA” value in series [4] was 50 µM.
`CCCCCCCCCCCOC(=O)[C@@H](N)CS` [C11]: in series [1], the CMC is listed as 80 µM, the “CMC without DNA” value is 80 µM and the c.m.c. is recorded as 80 µM. Moreover, in series [4], the “CMC with DNA” value amounted to 32 µM.
In series [1], `CCCCCCCCCCCCOC(=O)[C@@H](N)CS` [C12] registered a CMC of 15 µM and a c.m.c. of 15 µM.
`NC(CS)C(=O)NCCCNCCCCNCCCNC(=O)C(N)CS` (stereo not drawn) [SC2, spermine-N1, N12-bis-cysteineamide] gave a thiol groups oxydised in series [5] of 50%. For the same compound, the “absorption at 330 nm as compared to the maximum optical density at 25 mM NaCl” value is recorded as 81% in series [6] (at 100 mM NaCl, raised one and a half hours after mixing); 71% in series [6] (at 150 mM NaCl).
Take `NCCCNCCCCNCCCN` [spermine, reference compound]: in series [6] (NaCl raised to 100 mM, 65 mM spermine), the “observed UV spectrum after raising NaCl” value is “identical with the spectrum of the DNA that had been observed before complexation with spermine”.
